pIC50: −log10 of the molar value.
Assays:
[1] = biological target: Phosphatidylinositol 4,5-bisphosphate 3-kinase catalytic subunit beta isoform (Homo sapiens, UniProt P42338); test: Inhibition of PI3Kbeta (unknown origin) pre-incubated for 20 mins before phosphatidylinositol 4, 5-bisphosphate substrate addition by kinase-glo plus luminescence assay
[2] = Inhibition of PI4K3alpha in mouse NIH3T3 cells co-expressing PDGFRbeta receptor assessed as inhibition of PDGF-induced IP1 accumulation incubated for 30 mins by HTRF based assay; type: cell-based; conditions: NIH3T3, 0.5 h
[3] = biological target: Phosphatidylinositol 4-kinase beta (Homo sapiens, UniProt Q9UBF8); test: Inhibition of N-terminal GST-tagged human full length recombinant PI4K3beta expressed in Sf9 cells using D-myo-phosphatidylinositol substrate and ATP incubated for 45 mins by ADP-Glo kinase Assay
Chain of Phosphatidylinositol 4-kinase beta (Q9UBF8 whole entry): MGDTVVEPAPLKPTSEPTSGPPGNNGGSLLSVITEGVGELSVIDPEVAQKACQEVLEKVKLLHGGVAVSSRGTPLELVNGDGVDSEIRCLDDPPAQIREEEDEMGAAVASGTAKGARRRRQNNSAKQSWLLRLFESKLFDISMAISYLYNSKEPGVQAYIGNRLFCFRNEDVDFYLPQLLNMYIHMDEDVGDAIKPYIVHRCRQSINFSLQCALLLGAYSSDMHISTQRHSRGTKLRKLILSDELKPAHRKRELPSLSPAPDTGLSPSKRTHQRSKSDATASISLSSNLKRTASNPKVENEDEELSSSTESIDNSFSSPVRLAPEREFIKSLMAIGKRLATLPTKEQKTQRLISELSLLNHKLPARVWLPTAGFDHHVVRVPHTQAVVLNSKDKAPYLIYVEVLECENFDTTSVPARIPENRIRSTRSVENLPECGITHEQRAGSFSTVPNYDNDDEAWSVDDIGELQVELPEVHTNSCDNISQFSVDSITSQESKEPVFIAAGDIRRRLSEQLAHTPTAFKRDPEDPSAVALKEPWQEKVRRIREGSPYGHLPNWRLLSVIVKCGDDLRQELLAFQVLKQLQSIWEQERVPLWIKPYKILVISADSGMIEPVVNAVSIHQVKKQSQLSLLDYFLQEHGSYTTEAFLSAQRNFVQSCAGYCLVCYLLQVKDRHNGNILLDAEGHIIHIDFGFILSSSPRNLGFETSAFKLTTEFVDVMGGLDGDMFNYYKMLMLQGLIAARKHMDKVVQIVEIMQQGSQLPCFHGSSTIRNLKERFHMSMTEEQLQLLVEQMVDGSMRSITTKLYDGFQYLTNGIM

[4] = biological target: Phosphatidylinositol 4-phosphate 5-kinase type-1 gamma (Homo sapiens, UniProt O60331); test: Inhibition of PIP5K1C (unknown origin) using D-myo-phosphatidylinositol 4-phosphate substrate and ATP by ADP-Glo kinase Assay
Chain of Phosphatidylinositol 4-phosphate 5-kinase type-1 gamma (O60331 whole entry, canonical isoform): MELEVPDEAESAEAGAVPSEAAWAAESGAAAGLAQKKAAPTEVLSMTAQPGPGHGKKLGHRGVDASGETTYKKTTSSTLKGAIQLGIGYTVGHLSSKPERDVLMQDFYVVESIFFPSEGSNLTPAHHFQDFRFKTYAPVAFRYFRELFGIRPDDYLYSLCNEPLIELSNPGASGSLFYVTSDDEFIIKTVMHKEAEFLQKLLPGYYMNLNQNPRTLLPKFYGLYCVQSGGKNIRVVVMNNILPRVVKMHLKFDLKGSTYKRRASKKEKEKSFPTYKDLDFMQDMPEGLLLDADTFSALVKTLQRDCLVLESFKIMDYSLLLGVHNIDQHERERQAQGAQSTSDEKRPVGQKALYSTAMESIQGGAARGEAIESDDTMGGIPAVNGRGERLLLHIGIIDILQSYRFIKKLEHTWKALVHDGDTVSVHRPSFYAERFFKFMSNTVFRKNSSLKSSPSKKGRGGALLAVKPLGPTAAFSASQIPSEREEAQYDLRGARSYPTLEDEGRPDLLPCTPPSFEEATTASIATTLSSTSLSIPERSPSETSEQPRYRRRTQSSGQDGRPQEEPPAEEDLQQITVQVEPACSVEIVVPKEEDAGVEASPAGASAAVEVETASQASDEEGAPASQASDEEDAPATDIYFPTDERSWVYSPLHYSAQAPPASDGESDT

[5] = biological target: T1, Phosphatidylinositol 4,5-bisphosphate 3-kinase catalytic subunit delta isoform (Homo sapiens, UniProt O00329); test: Inhibition of PI3Kdelta (unknown origin) pre-incubated for 20 mins before phosphatidylinositol 4, 5-bisphosphate substrate addition by kinase-glo plus luminescence assay
T1 sequence (O00329 whole entry): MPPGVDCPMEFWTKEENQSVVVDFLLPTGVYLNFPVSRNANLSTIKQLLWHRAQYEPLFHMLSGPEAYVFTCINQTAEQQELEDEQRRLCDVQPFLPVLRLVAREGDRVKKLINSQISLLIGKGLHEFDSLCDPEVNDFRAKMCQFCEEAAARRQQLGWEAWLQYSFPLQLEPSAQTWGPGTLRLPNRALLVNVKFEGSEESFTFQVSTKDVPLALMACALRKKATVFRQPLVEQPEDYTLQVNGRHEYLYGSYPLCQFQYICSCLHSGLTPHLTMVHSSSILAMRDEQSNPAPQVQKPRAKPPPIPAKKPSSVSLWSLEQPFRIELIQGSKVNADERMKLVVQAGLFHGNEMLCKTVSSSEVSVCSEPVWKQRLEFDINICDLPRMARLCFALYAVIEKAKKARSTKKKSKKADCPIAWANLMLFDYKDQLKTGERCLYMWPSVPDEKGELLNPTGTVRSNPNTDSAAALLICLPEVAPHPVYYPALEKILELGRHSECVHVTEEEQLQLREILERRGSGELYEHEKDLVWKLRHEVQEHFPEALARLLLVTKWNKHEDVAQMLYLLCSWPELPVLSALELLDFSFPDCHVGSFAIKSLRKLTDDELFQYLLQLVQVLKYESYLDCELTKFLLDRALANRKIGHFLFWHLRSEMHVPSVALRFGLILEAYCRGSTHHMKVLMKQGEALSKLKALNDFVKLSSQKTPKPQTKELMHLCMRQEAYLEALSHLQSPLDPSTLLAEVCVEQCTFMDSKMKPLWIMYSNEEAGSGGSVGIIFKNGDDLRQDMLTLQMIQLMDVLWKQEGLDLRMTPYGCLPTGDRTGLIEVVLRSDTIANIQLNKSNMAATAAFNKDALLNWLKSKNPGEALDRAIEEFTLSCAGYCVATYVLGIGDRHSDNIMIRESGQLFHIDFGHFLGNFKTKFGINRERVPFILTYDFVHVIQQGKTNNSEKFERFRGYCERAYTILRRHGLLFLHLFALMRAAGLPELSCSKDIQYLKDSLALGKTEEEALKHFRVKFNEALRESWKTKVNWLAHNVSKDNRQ

[6] = biological target: Phosphatidylinositol 4-kinase alpha (Homo sapiens, UniProt P42356); test: Inhibition of N-terminal FLAG-tagged human full length recombinant PI4K3alpha using D-myo-phosphatidylinositol substrate and ATP incubated for 45 mins by ADP-Glo kinase Assay
Chain of Phosphatidylinositol 4-kinase alpha (P42356 whole entry, canonical isoform): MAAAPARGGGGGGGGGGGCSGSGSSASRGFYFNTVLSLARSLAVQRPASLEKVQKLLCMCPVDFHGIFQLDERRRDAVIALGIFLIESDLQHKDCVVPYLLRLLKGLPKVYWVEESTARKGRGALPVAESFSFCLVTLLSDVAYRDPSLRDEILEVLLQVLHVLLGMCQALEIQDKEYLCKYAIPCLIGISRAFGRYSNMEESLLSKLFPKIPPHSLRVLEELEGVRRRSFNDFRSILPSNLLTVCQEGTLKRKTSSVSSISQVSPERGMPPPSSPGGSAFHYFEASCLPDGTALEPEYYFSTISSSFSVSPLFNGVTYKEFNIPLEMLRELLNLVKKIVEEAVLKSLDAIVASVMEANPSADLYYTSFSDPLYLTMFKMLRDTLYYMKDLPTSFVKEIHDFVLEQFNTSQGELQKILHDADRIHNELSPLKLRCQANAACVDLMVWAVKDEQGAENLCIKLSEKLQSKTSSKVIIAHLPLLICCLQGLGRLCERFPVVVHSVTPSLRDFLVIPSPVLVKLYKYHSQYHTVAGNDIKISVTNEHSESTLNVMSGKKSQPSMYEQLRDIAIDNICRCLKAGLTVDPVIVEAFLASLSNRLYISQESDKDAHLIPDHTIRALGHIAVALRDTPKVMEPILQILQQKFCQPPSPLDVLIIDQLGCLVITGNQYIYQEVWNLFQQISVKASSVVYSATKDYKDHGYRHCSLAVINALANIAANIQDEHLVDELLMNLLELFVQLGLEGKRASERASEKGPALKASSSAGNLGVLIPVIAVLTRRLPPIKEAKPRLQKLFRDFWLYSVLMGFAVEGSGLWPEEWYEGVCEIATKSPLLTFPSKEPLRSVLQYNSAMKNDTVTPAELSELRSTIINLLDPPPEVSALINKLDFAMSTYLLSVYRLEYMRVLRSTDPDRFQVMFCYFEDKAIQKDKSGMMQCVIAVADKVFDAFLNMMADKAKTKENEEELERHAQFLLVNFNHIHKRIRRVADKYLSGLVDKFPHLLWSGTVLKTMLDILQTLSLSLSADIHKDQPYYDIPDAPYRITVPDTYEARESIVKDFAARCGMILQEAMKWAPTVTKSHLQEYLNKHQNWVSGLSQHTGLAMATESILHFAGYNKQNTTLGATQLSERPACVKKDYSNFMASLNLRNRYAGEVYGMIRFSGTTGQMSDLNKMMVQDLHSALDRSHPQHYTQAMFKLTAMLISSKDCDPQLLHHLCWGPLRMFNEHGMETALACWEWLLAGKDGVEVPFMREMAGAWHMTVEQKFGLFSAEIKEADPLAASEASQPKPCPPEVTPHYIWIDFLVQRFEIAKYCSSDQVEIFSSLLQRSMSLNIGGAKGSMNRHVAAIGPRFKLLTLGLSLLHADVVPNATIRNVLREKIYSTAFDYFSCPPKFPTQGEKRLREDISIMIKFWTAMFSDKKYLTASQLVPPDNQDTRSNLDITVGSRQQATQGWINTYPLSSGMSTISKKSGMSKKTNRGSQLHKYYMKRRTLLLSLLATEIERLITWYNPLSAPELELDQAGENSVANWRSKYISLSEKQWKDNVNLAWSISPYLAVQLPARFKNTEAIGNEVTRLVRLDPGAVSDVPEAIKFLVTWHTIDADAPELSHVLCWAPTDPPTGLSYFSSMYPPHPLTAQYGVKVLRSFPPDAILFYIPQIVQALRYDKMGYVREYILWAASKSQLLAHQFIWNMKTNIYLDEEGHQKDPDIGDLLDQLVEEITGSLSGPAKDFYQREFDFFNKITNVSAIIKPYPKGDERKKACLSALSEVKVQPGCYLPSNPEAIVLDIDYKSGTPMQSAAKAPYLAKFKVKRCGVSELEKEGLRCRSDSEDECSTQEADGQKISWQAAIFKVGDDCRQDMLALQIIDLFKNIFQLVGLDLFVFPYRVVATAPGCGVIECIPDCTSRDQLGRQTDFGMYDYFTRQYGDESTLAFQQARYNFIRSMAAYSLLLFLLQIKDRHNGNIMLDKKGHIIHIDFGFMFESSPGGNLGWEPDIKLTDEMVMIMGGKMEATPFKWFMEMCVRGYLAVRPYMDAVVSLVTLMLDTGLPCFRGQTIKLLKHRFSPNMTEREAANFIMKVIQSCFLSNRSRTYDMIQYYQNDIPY

[7] = biological target: Phosphatidylinositol 4,5-bisphosphate 3-kinase catalytic subunit alpha isoform (Homo sapiens, UniProt P42336); test: Inhibition of PI3Kalpha (unknown origin) pre-incubated for 20 mins before phosphatidylinositol 4, 5-bisphosphate substrate addition by kinase-glo plus luminescence assay
[8] = biological target: Phosphatidylinositol 4,5-bisphosphate 3-kinase catalytic subunit gamma isoform (Homo sapiens, UniProt P48736); test: Inhibition of PI3Kgamma (unknown origin) pre-incubated for 20 mins before phosphatidylinositol 4, 5-bisphosphate substrate addition by kinase-glo plus luminescence assay
Chain of Phosphatidylinositol 4,5-bisphosphate 3-kinase catalytic subunit gamma isoform (P48736 whole entry, canonical isoform): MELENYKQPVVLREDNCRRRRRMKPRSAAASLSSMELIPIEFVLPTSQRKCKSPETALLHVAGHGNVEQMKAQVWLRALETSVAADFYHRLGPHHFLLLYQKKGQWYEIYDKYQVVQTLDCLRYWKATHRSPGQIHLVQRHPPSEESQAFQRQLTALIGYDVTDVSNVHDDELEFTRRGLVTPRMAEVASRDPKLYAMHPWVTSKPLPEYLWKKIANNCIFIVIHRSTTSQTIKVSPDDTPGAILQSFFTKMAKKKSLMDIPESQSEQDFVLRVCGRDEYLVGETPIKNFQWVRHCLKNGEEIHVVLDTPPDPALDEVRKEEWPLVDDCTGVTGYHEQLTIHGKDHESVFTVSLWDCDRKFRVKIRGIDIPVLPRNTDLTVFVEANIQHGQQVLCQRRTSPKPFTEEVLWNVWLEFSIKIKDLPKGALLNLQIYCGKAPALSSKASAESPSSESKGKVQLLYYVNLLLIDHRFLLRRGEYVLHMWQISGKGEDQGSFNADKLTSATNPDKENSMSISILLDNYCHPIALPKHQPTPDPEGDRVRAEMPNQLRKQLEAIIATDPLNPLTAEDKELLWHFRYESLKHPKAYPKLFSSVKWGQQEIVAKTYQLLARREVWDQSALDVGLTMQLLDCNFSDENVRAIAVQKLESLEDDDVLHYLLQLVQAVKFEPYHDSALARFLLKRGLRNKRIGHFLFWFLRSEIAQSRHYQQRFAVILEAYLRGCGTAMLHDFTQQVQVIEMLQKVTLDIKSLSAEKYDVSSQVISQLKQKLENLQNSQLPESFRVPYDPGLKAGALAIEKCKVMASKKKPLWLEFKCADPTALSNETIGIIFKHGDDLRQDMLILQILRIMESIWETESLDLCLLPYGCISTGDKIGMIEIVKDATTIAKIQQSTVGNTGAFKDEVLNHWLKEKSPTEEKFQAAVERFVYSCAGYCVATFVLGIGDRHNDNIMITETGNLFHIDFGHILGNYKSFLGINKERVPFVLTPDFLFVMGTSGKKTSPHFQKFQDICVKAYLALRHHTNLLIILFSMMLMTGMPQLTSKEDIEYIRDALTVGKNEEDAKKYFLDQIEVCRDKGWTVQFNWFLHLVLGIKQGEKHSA

Structure (SMILES)	pIC50 [1]	pIC50 [2]	pIC50 [3]	pIC50 [4]	pIC50 [5]	pIC50 [6]	pIC50 [7]	pIC50 [8]
C[C@@H](Nc1nc2ccc(-c3ccn(CC4CC4)c(=O)c3)cc2s1)C1CCOCC1	< 3.70	6.20	6.50	< 4.00	< 3.70	8.10	< 3.70	4.20
O=c1cc(-c2ccc3nc(NCC4CCOCC4)sc3c2)ccn1CC1CC1	< 3.70	6.10	6.40	< 4.00	4.00	8.30	< 3.70	4.80
C[C@H](Nc1nc2ccc(-c3ccn(CC4CC4)c(=O)c3)cc2s1)C1CCOCC1	< 3.70	5.10	5.60	4.60	< 3.70	7.40	< 3.70	< 3.70
O=c1cc(-c2ccc3nc(NC[C@H]4CC[C@H](C(=O)O)CC4)sc3c2)ccn1CC1CC1	< 3.70	6.50	6.60		< 4.10	9.00	4.00	5.00
O=c1cc(-c2ccc3nc(NCC4CCS(=O)(=O)CC4)sc3c2)ccn1CC1CC1	< 3.70	6.20	6.20	< 4.00	< 3.70	8.70	4.10	4.30
Nc1nc2ccc(-c3ccn(CC4CC4)c(=O)c3)cc2s1	< 3.90	6.30	5.80	< 4.10	4.90	8.20	5.20	5.80

— ChEMBL document CHEMBL3600363, “Discovery of potent, selective small molecule inhibitors of α-subtype of type III phosphatidylinositol-4-kinase (PI4KIIIα)” (Bioorg Med Chem Lett, 2015)
